Measured values reported in PubChem BioAssay AID1963980 (Molecular Pharmacology Branch, DTP, NCI, 2024).

System: 475296-252-R-J1-PDC spheroid viability
Test: Anticancer human tumor 475296-252-R-J1-PDC patient-derived rectal carcinoma cell line growth inhibition [PI3K]
Details: spheroids with HUVEC and MSC; for IC50: curve of first compound; for viability, T/C: stronger effect = lower value; active = viability on the fitted dose curve at most 10% of control; inactive = the rest
Method in brief: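 Spheroid viability read-out. Co-cultures contained the tumor line plus HUVEC and human MSCs. Each agent was paired with a PI3K inhibitor (inavolisib, alpelisib, duvelisib, copanlisib) across half-log dilutions starting at clinical Cmax, or at 10 microM when Cmax was unknown.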
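Note: spheroids exposed to agents for seven days before readout.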

CNC(=O)c1ccc(N2C(=S)N(c3ccc(C#N)c(C(F)(F)F)c3)C(=O)C2(C)C)cc1F + CC(Nc1ncnc2nc[nH]c12)c1cc2cccc(Cl)c2c(=O)n1-c1ccccc1
> 10 µM: IC50 (second compound 0.0316 µM) | IC50 (second compound 0.1 µM) | IC50 (second compound 0.316 µM) | IC50 (second compound 1 µM) | IC50 (second compound 3.16 µM) | IC50 (second compound 10 µM)
inactive: viability, T/C (second compound 0.0316 µM, first compound 0.0316 µM) 90.9% | viability, T/C (second compound 0.0316 µM, first compound 0.1 µM) 92.1% | viability, T/C (second compound 0.0316 µM, first compound 0.316 µM) 107% | viability, T/C (second compound 0.0316 µM, first compound 1 µM) 92.6% | viability, T/C (second compound 0.0316 µM, first compound 3.16 µM) 101% | viability, T/C (second compound 0.0316 µM, first compound 10 µM) 85.7% | viability, T/C (second compound 0.1 µM, first compound 0.0316 µM) 97.6% | viability, T/C (second compound 0.1 µM, first compound 0.1 µM) 99.6% | viability, T/C (second compound 0.1 µM, first compound 0.316 µM) 93.4% | viability, T/C (second compound 0.1 µM, first compound 1 µM) 109% | viability, T/C (second compound 0.1 µM, first compound 3.16 µM) 109% | viability, T/C (second compound 0.1 µM, first compound 10 µM) 106% | viability, T/C (second compound 0.316 µM, first compound 0.0316 µM) 94.9% | viability, T/C (second compound 0.316 µM, first compound 0.1 µM) 104% | viability, T/C (second compound 0.316 µM, first compound 0.316 µM) 106% | viability, T/C (second compound 0.316 µM, first compound 1 µM) 98.4% | viability, T/C (second compound 0.316 µM, first compound 3.16 µM) 107% | viability, T/C (second compound 0.316 µM, first compound 10 µM) 96.2% | viability, T/C (second compound 1 µM, first compound 0.0316 µM) 97% | viability, T/C (second compound 1 µM, first compound 0.1 µM) 92.1% | viability, T/C (second compound 1 µM, first compound 0.316 µM) 102% | viability, T/C (second compound 1 µM, first compound 1 µM) 92.4% | viability, T/C (second compound 1 µM, first compound 3.16 µM) 99.2% | viability, T/C (second compound 1 µM, first compound 10 µM) 99.7% | viability, T/C (second compound 3.16 µM, first compound 0.0316 µM) 89.4% | viability, T/C (second compound 3.16 µM, first compound 0.1 µM) 114% | viability, T/C (second compound 3.16 µM, first compound 0.316 µM) 94% | viability, T/C (second compound 3.16 µM, first compound 1 µM) 103% | viability, T/C (second compound 3.16 µM, first compound 3.16 µM) 101% | viability, T/C (second compound 3.16 µM, first compound 10 µM) 93.2% | viability, T/C (second compound 10 µM, first compound 0.0316 µM) 103% | viability, T/C (second compound 10 µM, first compound 0.1 µM) 92% | viability, T/C (second compound 10 µM, first compound 0.316 µM) 93% | viability, T/C (second compound 10 µM, first compound 1 µM) 96.6% | viability, T/C (second compound 10 µM, first compound 3.16 µM) 107% | viability, T/C (second compound 10 µM, first compound 10 µM) 109%

Cn1cnc2c(F)c(Nc3ccc(Br)cc3Cl)c(C(=O)NOCCO)cc21 + CC(Nc1ncnc2nc[nH]c12)c1cc2cccc(Cl)c2c(=O)n1-c1ccccc1
2.12 µM: IC50 (second compound 3.16 µM)
inactive: viability, T/C (second compound 0.0316 µM, first compound 0.00949 µM) 84.4% | viability, T/C (second compound 0.0316 µM, first compound 0.03 µM) 84.9% | viability, T/C (second compound 0.0316 µM, first compound 0.0949 µM) 81.6% | viability, T/C (second compound 0.0316 µM, first compound 0.3 µM) 70.5% | viability, T/C (second compound 0.0316 µM, first compound 0.949 µM) 63.1% | viability, T/C (second compound 0.0316 µM, first compound 3 µM) 53.9% | viability, T/C (second compound 0.1 µM, first compound 0.00949 µM) 95.8% | viability, T/C (second compound 0.1 µM, first compound 0.03 µM) 85.5% | viability, T/C (second compound 0.1 µM, first compound 0.0949 µM) 93.3% | viability, T/C (second compound 0.1 µM, first compound 0.3 µM) 73.5% | viability, T/C (second compound 0.1 µM, first compound 0.949 µM) 66.6% | viability, T/C (second compound 0.1 µM, first compound 3 µM) 55.7% | viability, T/C (second compound 0.316 µM, first compound 0.00949 µM) 90.7% | viability, T/C (second compound 0.316 µM, first compound 0.03 µM) 92.9% | viability, T/C (second compound 0.316 µM, first compound 0.0949 µM) 86.5% | viability, T/C (second compound 0.316 µM, first compound 0.3 µM) 74.8% | viability, T/C (second compound 0.316 µM, first compound 0.949 µM) 76.3% | viability, T/C (second compound 0.316 µM, first compound 3 µM) 51.5% | viability, T/C (second compound 1 µM, first compound 0.00949 µM) 95.7% | viability, T/C (second compound 1 µM, first compound 0.03 µM) 95.7% | viability, T/C (second compound 1 µM, first compound 0.0949 µM) 81.4% | viability, T/C (second compound 1 µM, first compound 0.3 µM) 68.2% | viability, T/C (second compound 1 µM, first compound 0.949 µM) 67.3% | viability, T/C (second compound 1 µM, first compound 3 µM) 48.1% | viability, T/C (second compound 3.16 µM, first compound 0.00949 µM) 94.2% | viability, T/C (second compound 3.16 µM, first compound 0.03 µM) 92.9% | viability, T/C (second compound 3.16 µM, first compound 0.0949 µM) 76% | viability, T/C (second compound 3.16 µM, first compound 0.3 µM) 68.3% | viability, T/C (second compound 3.16 µM, first compound 0.949 µM) 62.5% | viability, T/C (second compound 3.16 µM, first compound 3 µM) 44.9% | viability, T/C (second compound 10 µM, first compound 0.00949 µM) 100% | viability, T/C (second compound 10 µM, first compound 0.03 µM) 95% | viability, T/C (second compound 10 µM, first compound 0.0949 µM) 73.2% | viability, T/C (second compound 10 µM, first compound 0.3 µM) 59.9% | viability, T/C (second compound 10 µM, first compound 0.949 µM) 59.6% | viability, T/C (second compound 10 µM, first compound 3 µM) 38.3%
1.21 µM: IC50 (second compound 10 µM)
> 3 µM: IC50 (second compound 0.0316 µM) | IC50 (second compound 0.1 µM) | IC50 (second compound 0.316 µM)
2.91 µM: IC50 (second compound 1 µM)
